The results in this text go back to patent publication US12492193B2, “Pyrazole derivatives for the treatment of cystic fibrosis” (Fondazione Istituto Italiano Di Tecnologia, priority 2017, dated 2025).

T1 sequence (P13569 with tags, fused parts or gaps DEL508-508): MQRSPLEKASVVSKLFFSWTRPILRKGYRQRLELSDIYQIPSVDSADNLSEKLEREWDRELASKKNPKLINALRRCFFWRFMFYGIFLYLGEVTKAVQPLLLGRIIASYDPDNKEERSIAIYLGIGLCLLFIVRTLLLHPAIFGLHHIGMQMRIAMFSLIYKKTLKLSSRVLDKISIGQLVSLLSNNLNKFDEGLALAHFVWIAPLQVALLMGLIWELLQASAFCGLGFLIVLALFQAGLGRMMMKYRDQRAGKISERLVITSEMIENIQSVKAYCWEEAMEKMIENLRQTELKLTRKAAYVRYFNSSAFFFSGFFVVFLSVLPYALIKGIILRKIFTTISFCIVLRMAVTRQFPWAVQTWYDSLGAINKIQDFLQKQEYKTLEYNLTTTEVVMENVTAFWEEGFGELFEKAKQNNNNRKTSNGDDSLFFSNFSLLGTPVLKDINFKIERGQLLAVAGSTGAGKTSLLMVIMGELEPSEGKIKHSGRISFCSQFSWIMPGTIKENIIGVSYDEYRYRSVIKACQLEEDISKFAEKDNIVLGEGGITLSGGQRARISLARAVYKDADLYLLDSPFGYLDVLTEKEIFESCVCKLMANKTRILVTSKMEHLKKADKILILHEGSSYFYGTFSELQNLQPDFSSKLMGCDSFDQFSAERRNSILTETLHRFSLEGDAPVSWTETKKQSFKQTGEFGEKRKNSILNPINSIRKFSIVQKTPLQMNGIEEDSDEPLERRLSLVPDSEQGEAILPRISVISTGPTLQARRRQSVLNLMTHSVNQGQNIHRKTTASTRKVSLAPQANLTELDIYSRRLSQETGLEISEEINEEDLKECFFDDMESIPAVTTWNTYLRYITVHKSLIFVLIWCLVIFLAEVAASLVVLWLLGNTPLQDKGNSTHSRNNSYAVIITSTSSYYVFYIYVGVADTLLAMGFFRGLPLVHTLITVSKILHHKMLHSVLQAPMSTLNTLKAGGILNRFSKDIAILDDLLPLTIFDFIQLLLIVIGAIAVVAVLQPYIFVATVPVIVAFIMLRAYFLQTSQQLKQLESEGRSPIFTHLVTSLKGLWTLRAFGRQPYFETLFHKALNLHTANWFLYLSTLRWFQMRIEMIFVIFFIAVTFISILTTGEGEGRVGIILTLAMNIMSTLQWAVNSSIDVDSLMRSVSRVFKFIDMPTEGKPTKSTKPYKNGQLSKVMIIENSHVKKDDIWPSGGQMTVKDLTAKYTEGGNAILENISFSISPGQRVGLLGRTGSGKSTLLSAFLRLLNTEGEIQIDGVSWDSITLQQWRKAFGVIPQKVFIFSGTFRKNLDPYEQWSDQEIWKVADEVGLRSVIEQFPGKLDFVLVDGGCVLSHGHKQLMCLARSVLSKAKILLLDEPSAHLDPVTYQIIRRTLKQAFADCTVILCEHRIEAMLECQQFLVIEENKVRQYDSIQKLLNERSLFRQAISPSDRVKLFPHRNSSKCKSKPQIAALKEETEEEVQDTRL

The experiment addresses T1, mutant CFTR (Homo sapiens, UniProt P13569, DEL508-508).
T1 construct: expressed in transfected cells
Briefly: Fluorescence (HS-YFP) assay for CFTR activity, corrector assay. It is filed as cell-based. To be noted: CFBE41o- and FRT cells with stable expression of mutant CFTR, 24 h compound treatment. The method in brief: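 Corrector activity: 24 h compound treatment of HS-YFP/mutant-CFTR CFBE41o- or FRT cells, followed by 30 min forskolin 20 μM + genistein 50 μM at 37° C. Iodide influx (100 mM final) was tracked as fluorescence quenching, with dF/dt extrapolated by exponential fitting; EC50 values derived.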
The EC50 is the concentration that produces a half-maximal response. As to `CN(C(=O)c1cccc(-n2nc(C(F)(F)F)c(Cl)c2OCc2ccccc2)c1)c1ccc2c(c1)OCO2` [compound 134, N-(1,3-Benzodioxol-5-yl)-3-[5-benzyloxy-4-chloro-3-(trifluoromethyl)pyrazol-1-yl]-N-methyl-benzamide], the EC50 was < 1000 nM.

With `CCN(C(=O)c1cccc(-n2nc(C(F)(F)F)c(Cl)c2C2CC2)c1)c1ccc2nc(C)oc2c1` [compound 135, 3-[4-Chloro-5-cyclopropyl-3-(trifluoromethyl)pyrazol-1-yl]-N-ethyl-N-(2-methyl-1,3-benzoxazol-6-yl)benzamide], the EC50 was < 1000 nM. Under `Cc1nc2ccc(N(C)C(=O)c3cccc(-n4nc(C(F)(F)F)c(Cl)c4C4CC4)c3)cc2o1` [compound 137, 3-[4-Chloro-5-cyclopropyl-3-(trifluoromethyl)pyrazol-1-yl]-N-methyl-N-(2-methyl-3-benzoxazol-6-yl)benzamide] stands < 1000 nM; under `[2H]C([2H])([2H])N(C(=O)c1cccc(-n2nc(C(F)(F)F)c(Cl)c2C2CC2)c1)c1ccc2nc(C)oc2c1` [compound 138, 3-[4-Chloro-5-cyclopropyl-3-(trifluoromethyl)pyrazol-1-yl]-N-(2-methyl-1,3-benzoxazol-6-yl)-N-(trideuteriomethyl)benzamide], < 1000 nM; under `Cc1nc2cc(Cl)c(N(C)C(=O)c3cccc(-n4nc(C(F)(F)F)c(Cl)c4C4CC4)c3)cc2o1` [compound 139, 3-[4-Chloro-5-cyclopropyl-3-(trifluoromethyl)pyrazol-1-yl]-N-(5-chloro-2-methyl-1,3-benzoxazol-6-yl)-N-methyl-benzamide], < 1000 nM. For the molecule `CCOC(=O)c1cccc(OCc2c(Cl)c(C)nn2-c2cccc(C(=O)N(C)c3ccc4c(c3)OCO4)c2)c1` [compound 140, Ethyl 3-[[2-[3-[1,3-benzodioxol-5-yl(methyl)carbamoyl]phenyl]-4-chloro-5-methyl-pyrazol-3-yl]methoxy]benzoate], the EC50 is < 1000 nM. In the case of `CC(C)Oc1c(Cl)c(C(F)(F)F)nn1-c1cccc(C(=O)N(C)c2ccc3c(c2)OCO3)c1` [compound 142, N-(1,3-Benzodioxol-5-yl)-3-[4-chloro-5-isopropoxy-3-(trifluoromethyl)pyrazol-1-yl]-N-methyl-benzamide], the EC50 is < 1000 nM. Turning to `Cc1nn(-c2cccc(C(=O)N(C)c3ccc4c(c3)OCO4)c2)c(COc2cccc(C(=O)O)c2)c1Cl` [compound 143, 3-[[2-[3-[1,3-Benzodioxol-5-yl(methyl)carbamoyl]phenyl]-4-chloro-5-methyl-pyrazol-3-yl]methoxy]benzoic acid], the EC50 lay in the range of 1000 to 2000 nM.

Turning to `CN(C(=O)c1cccc(-n2nc(C(F)(F)F)cc2-c2ccco2)c1)c1ccc2c(c1)OCO2` [compound 147, N-(1,3-Benzodioxol-5-yl)-3-[5-(2-furyl)-3-(trifluoromethyl)pyrazol-1-yl]-N-methyl-benzamide], the EC50 was < 1000 nM. For `Cc1nc2ccc(N(C)C(=O)c3cccc(-n4nc(C(F)(F)F)c(Cl)c4C)c3)cc2s1` [compound 149, 3-[4-Chloro-5-methyl-3-(trifluoromethyl)pyrazol-1-yl]-N-methyl-N-(2-methyl-1,3-benzothiazol-6-yl)benzamide], the EC50 lay within 1000 to 2000 nM. For `CCOC(=O)c1ccc(OCc2c(Cl)c(C(F)(F)F)nn2-c2cccc(C(=O)N(C)c3ccc4c(c3)OCO4)c2)cc1` [compound 150, Ethyl 4-[[2-[3-[1,3-benzodioxol-5-yl(methyl)carbamoyl]phenyl]-4-chloro-5-(trifluoromethyl)pyrazol-3-yl]methoxy]benzoate], the EC50 was < 1000 nM. In the case of `CN(C(=O)c1cccc(-n2nc(C(F)(F)F)c(Cl)c2COc2ccc(C(=O)O)cc2)c1)c1ccc2c(c1)OCO2` [compound 151, 4-[[2-[3-[1,3-benzodioxol-5-yl(methyl)carbamoyl]phenyl]-4-chloro-5-(trifluoromethyl)pyrazol-3-yl]methoxy]benzoic acid], the EC50 was < 1000 nM.
